Results published in the supplement of paper PMC10331698.
± gives the standard deviation of the averaged measurements.

What was measured:
Assay in all cases: level (log10 ratio to DMSO vehicle control); higher = higher biomarker level / cell amount than vehicle control
[1] = compound: C=C(C)C(=O)OCCC(F)(F)C(F)(F)C(F)(F)C(F)(F)C(F)(F)C(F)(F)C(F)(F)C(F)(F)F [8:2 Fluorotelomer methacrylate] (in DMSO)
Experimental: (§1)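 BioMAP Diversity Plus panel of 12 human primary cell co-culture systems (3C, 4H, LPS, SAg, BT, BF4T, BE3C, CASM3C, HDF3CGF, KF3CT, MyoF, Mphg). Compounds were added 1 h before stimulation and left for 24 h (MyoF 48 h; BT 72 h for soluble read-outs or 6 d for IgG). Biomarkers were read by ELISA, cytotoxicity by SRB, PBMC viability and proliferation by Alamar Blue. Each well value was divided by the mean of 8 DMSO control wells on the same plate and log10 transformed; duplicate blinded samples were tested at 4 concentrations.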

[2] = compound: O=C(O)C(F)(F)C(F)(F)C(F)(F)C(F)(F)C(=O)O [Octafluoroadipic acid] (in DMSO)
Experimental: as §1

[3] = compound: O=C(O)C(F)(F)C(F)(F)C(F)(F)C(F)(F)C(F)(F)C(F)(F)C(F)(F)C(F)(F)C(F)(F)C(F)(F)F [Perfluoroundecanoic acid] (in DMSO); settings: 6700 nM
Experimental: as §1

[4] = compound: O=C(O)CCC(F)(C(F)(F)F)C(F)(F)F [4,4-bis(Trifluoromethyl)-4-fluoropropanoic acid] (in DMSO)
Experimental: as §1

[5] = compound: O=S(=O)(O)C(F)(F)C(F)(F)C(F)(F)C(F)(F)C(F)(F)C(F)(F)C(F)(F)F [Perfluoroheptanesulfonic acid] (in DMSO)
Experimental: as §1

[6] = compound: OCC(F)(F)C(F)(F)C(F)(F)C(F)F [1H,1H,5H-Perfluoropentanol] (in DMSO)
Experimental: as §1

[7] = compound: OCCC(F)(F)C(F)(F)C(F)(F)C(F)(F)F [4:2 Fluorotelomer alcohol] (in DMSO)
Experimental: as §1

Test System | level (log10) ([1]; 6700 nM) | level (log10) ([1]; 20000 nM) | level (log10) ([2]; 6700 nM) | level (log10) ([2]; 20000 nM) | level (log10) ([2]; 60000 nM) | level (log10) [3] | level (log10) ([4]; 6700 nM) | level (log10) ([4]; 20000 nM) | level (log10) ([4]; 60000 nM) | level (log10) ([5]; 1500 nM) | level (log10) ([5]; 4400 nM) | level (log10) ([5]; 13000 nM) | level (log10) ([5]; 40000 nM) | level (log10) ([6]; 6700 nM) | level (log10) ([6]; 20000 nM) | level (log10) ([6]; 60000 nM) | level (log10) ([7]; 6700 nM) | level (log10) ([7]; 20000 nM) | level (log10) ([7]; 60000 nM)
BT:B cell Proliferation | -0.025 ± 0.018 | 0.037 ± 0.033 | -0.014 ± 0.0028 | -0.023 ± 0.016 | 0.005 ± 0.031 | -0.0035 ± 0.025 | 0.0195 ± 0.0035 | -0.0115 ± 0.035 | 0.0125 ± 0.0035 | 0.031 ± 0.041 | 0.0315 ± 0.057 | -0.0185 ± 0.021 | 0.0115 ± 0.053 | -0.016 ± 0.0042 | 0.0015 ± 0.046 | 0.0065 ± 0.057 | 0.0125 ± 0.0035 | 0.0155 ± 0.033 | 0.019 ± 0.0042
BF4T:CCL2/MCP-1 | -0.0005 ± 0.028 | -0.051 ± 0.031 | 0.0145 ± 0.012 | -0.011 | 0.0225 ± 0.057 | -0.009 ± 0.023 | 0.016 ± 0.0028 | 0.026 ± 0.018 | 0.0015 ± 0.016 | 0.009 ± 0.041 | 0 ± 0.013 | -0.092 ± 0.028 | 0.016 ± 0.014 | -0.0175 ± 0.036 | 0.0495 ± 0.023 | 0.0305 ± 0.074 | 0.0035 ± 0.073 | -0.0015 ± 0.021 | 0.0275 ± 0.005
SAg:CCL2/MCP-1 | 0.0005 ± 0.025 | 0.003 ± 0.011 | -0.014 ± 0.02 | -0.0135 ± 0.0035 | 0.0015 ± 0.018 | -0.0155 ± 0.0035 | 0 ± 0.033 | -0.0125 ± 0.00071 | -0.0125 ± 0.025 | -0.001 ± 0.031 | -0.0345 ± 0.044 | -0.024 ± 0.028 | 0.031 ± 0.0071 | 0.016 ± 0.0085 | 0.0115 ± 0.035 | -0.014 ± 0.035 | -0.009 ± 0.0014 | 0.006 ± 0.025 | 0.031 ± 0.089
LPS:CD69 | -0.0425 ± 0.04 | -0.0355 ± 0.05 | 0.0545 ± 0.076 | 0.0595 ± 0.047 | 0.0515 ± 0.064 | -0.0585 ± 0.05 | -0.0145 ± 0.077 | -0.0265 ± 0.015 | -0.045 ± 0.025 | -0.01 ± 0.025 | -0.006 ± 0.0057 | -0.004 ± 0.025 | -0.015 ± 0.061 | -0.02 ± 0.011 | -0.0015 ± 0.013 | 0.0175 ± 0.0078 | -0.0295 ± 0.025 | -0.0135 ± 0.015 | -0.0105 ± 0.025
BF4T:CD106/VCAM-1 | -0.0225 ± 0.00071 | -0.0495 ± 0.022 | -0.01 ± 0.0014 | -0.0095 ± 0.016 | 0.002 ± 0.048 | -0.032 ± 0.041 | 0.018 ± 0.011 | -0.011 ± 0.031 | -0.0445 ± 0.0021 | 0.017 ± 0.024 | 0.001 ± 0.0042 | -0.0765 ± 0.0064 | -0.094 ± 0.0099 | -0.019 ± 0.085 | 0.0225 ± 0.029 | 0.021 ± 0.081 | -0.049 ± 0.083 | 0.022 ± 0.062 | 0.0485 ± 0.083
LPS:CXCL8/IL-8 | -0.037 ± 0.05 | -0.0225 ± 0.076 | 0.0015 ± 0.032 | -0.0035 ± 0.054 | 0.0415 ± 0.1 | -0.04 ± 0.035 | 0.011 ± 0.0028 | 0.007 ± 0.02 | 0.0135 ± 0.054 | 0.015 ± 0.0071 | -0.038 ± 0.0014 | -0.0185 ± 0.033 | 0.031 ± 0.09 | 0.004 ± 0.0057 | 0.0185 ± 0.005 | 0.001 ± 0.025 | -0.0255 ± 0.015 | -0.0005 ± 0.0078 | -0.005 ± 0.024
LPS:sTNF-alpha | 0.0165 ± 0.0064 | -0.007 ± 0.017 | -0.0035 ± 0.0035 | 0.0155 ± 0.005 | 0.0125 ± 0.018 | -0.0415 ± 0.00071 | -0.046 ± 0.045 | -0.013 ± 0.05 | -0.003 ± 0.018 | 0.024 ± 0.011 | -0.0245 ± 0.012 | -0.0225 ± 0.013 | -0.0295 ± 0.005 | 0.006 ± 0.041 | 0.0065 ± 0.044 | 0.01 ± 0.028 | -0.008 ± 0.02 | -0.01 ± 0.0071 | 0.0015 ± 0.0092
